Reference: publication PMC8699473, “An Easily Expandable Multi-Drug LC-MS Assay for the Simultaneous Quantification of 57 Oral Antitumor Drugs in Human Plasma” (Cancers, 2021)

Experiments:
[1] = Freeze-thaw stability in spiked pooled human plasma; assay type: physicochemical
[2] = Short-term stability in spiked pooled human plasma (bench-top, 4 °C, 56 °C)
[3] = Long-term stability in spiked pooled human plasma
[4] = Autosampler stability of ready for injection samples; assay type: physicochemical, human
[5] = set-up: method as in supplement references [1-55] as printed per drug; settings: minimum steady-state blood plasma concentration after multiple dose administration; ref supplement references [1-55] per drug; cited from earlier work

O=C(Nc1cnn2ccc(N3CCC[C@@H]3c3cc(F)ccc3F)nc12)N1CC[C@H](O)C1 [Larotrectinib]
Freeze-Thaw Accuracy [%] ([1]; validation standard 2xLLOV): 100.6%
Freeze-Thaw Accuracy [%] ([1]; validation standard LLOV): 97.9%
Freeze-Thaw Accuracy [%] ([1]; validation standard MOV): 100.3%
Freeze-Thaw Accuracy [%] ([1]; validation standard ULOV): 102.3%
Short-time stability (1h, 56°C) Accuracy [%] ([2]; validation standard 2xLLOV): 58.9%
Short-time stability (24h, 4°C, without daylight) Accuracy [%] ([2]; validation standard 2xLLOV): 104.3%
Short-time stability (24h, RT, with daylight) Accuracy [%] ([2]; validation standard 2xLLOV): 109.3%
Short-time stability (24h, RT, without daylight) Accuracy [%] ([2]; validation standard 2xLLOV): 102.4%
Short-time stability (1h, 56°C) Accuracy [%] ([2]; validation standard LLOV): 44.4%
Short-time stability (24h, 4°C, without daylight) Accuracy [%] ([2]; validation standard LLOV): 107.8%
Short-time stability (24h, RT, with daylight) Accuracy [%] ([2]; validation standard LLOV): 115.6%
Short-time stability (24h, RT, without daylight) Accuracy [%] ([2]; validation standard LLOV): 100.1%
Short-time stability (1h, 56°C) Accuracy [%] ([2]; validation standard MOV): 58.2%
Short-time stability (24h, 4°C, without daylight) Accuracy [%] ([2]; validation standard MOV): 99.9%
Short-time stability (24h, RT, with daylight) Accuracy [%] ([2]; validation standard MOV): 106.3%
Short-time stability (24h, RT, without daylight) Accuracy [%] ([2]; validation standard MOV): 110.8%
Short-time stability (1h, 56°C) Accuracy [%] ([2]; validation standard ULOV): 50.9%
Short-time stability (24h, 4°C, without daylight) Accuracy [%] ([2]; validation standard ULOV): 98.3%
Short-time stability (24h, RT, with daylight) Accuracy [%] ([2]; validation standard ULOV): 105.3%
Short-time stability (24h, RT, without daylight) Accuracy [%] ([2]; validation standard ULOV): 104.5%
Long-term stability, 1 month, -20°C Accuracy [%] ([3]; validation standard 2xLLOV): 97.9%
Long-term stability, 1 month, -80°C Accuracy [%] ([3]; validation standard 2xLLOV): 92.9%
Long-term stability, 2 month, -20°C Accuracy [%] ([3]; validation standard 2xLLOV): 103.6%
Long-term stability, 2 month, -80°C Accuracy [%] ([3]; validation standard 2xLLOV): 104.7%
Long-term stability, 3 month, -20°C Accuracy [%] ([3]; validation standard 2xLLOV): 100.8%
Long-term stability, 3 month, -80°C Accuracy [%] ([3]; validation standard 2xLLOV): 98.8%
Long-term stability, 6 weeks, 4°C, without daylight Accuracy [%] ([3]; validation standard 2xLLOV): 106.7%
Long-term stability, 1 month, -20°C Accuracy [%] ([3]; validation standard LLOV): 85.6%
Long-term stability, 1 month, -80°C Accuracy [%] ([3]; validation standard LLOV): 87.5%
Long-term stability, 2 month, -20°C Accuracy [%] ([3]; validation standard LLOV): 103.5%
Long-term stability, 2 month, -80°C Accuracy [%] ([3]; validation standard LLOV): 102.1%
Long-term stability, 3 month, -20°C Accuracy [%] ([3]; validation standard LLOV): 96.4%
Long-term stability, 3 month, -80°C Accuracy [%] ([3]; validation standard LLOV): 94.2%
Long-term stability, 6 weeks, 4°C, without daylight Accuracy [%] ([3]; validation standard LLOV): 115.2%
Long-term stability, 1 month, -20°C Accuracy [%] ([3]; validation standard MOV): 96.7%
Long-term stability, 1 month, -80°C Accuracy [%] ([3]; validation standard MOV): 97.2%
Long-term stability, 2 month, -20°C Accuracy [%] ([3]; validation standard MOV): 99.1%
Long-term stability, 2 month, -80°C Accuracy [%] ([3]; validation standard MOV): 103.2%
Long-term stability, 3 month, -20°C Accuracy [%] ([3]; validation standard MOV): 96.2%
Long-term stability, 3 month, -80°C Accuracy [%] ([3]; validation standard MOV): 91.1%
Long-term stability, 6 weeks, 4°C, without daylight Accuracy [%] ([3]; validation standard MOV): 105.2%
Long-term stability, 1 month, -20°C Accuracy [%] ([3]; validation standard ULOV): 95.0%
Long-term stability, 1 month, -80°C Accuracy [%] ([3]; validation standard ULOV): 95.5%
Long-term stability, 2 month, -20°C Accuracy [%] ([3]; validation standard ULOV): 102.5%
Long-term stability, 2 month, -80°C Accuracy [%] ([3]; validation standard ULOV): 104.6%
Long-term stability, 3 month, -20°C Accuracy [%] ([3]; validation standard ULOV): 97.8%
Long-term stability, 3 month, -80°C Accuracy [%] ([3]; validation standard ULOV): 95.6%
Long-term stability, 6 weeks, 4°C, without daylight Accuracy [%] ([3]; validation standard ULOV): 98.0%
Autosampler (24h, 4°C) Accuracy [%] ([4]; validation standard 2xLLOV): 87.6%
Autosampler (72h, 4°C) Accuracy [%] ([4]; validation standard 2xLLOV): 100.3%
Autosampler (24h, 4°C) Accuracy [%] ([4]; validation standard LLOV): 79.4%
Autosampler (72h, 4°C) Accuracy [%] ([4]; validation standard LLOV): 75.5%
Autosampler (24h, 4°C) Accuracy [%] ([4]; validation standard MOV): 104.6%
Autosampler (72h, 4°C) Accuracy [%] ([4]; validation standard MOV): 101.2%
Autosampler (24h, 4°C) Accuracy [%] ([4]; validation standard ULOV): 102.3%
Autosampler (72h, 4°C) Accuracy [%] ([4]; validation standard ULOV): 104.4%
cmin [5]: 5.14 ng/mL

Cc1cn(-c2cc(NC(=O)c3ccc(C)c(Nc4nccc(-c5cccnc5)n4)c3)cc(C(F)(F)F)c2)cn1 [Nilotinib]
Freeze-Thaw Accuracy [%] ([1]; validation standard 2xLLOV): 98.5%
Freeze-Thaw Accuracy [%] ([1]; validation standard LLOV): 92.8%
Freeze-Thaw Accuracy [%] ([1]; validation standard MOV): 100.9%
Freeze-Thaw Accuracy [%] ([1]; validation standard ULOV): 96.0%
Short-time stability (1h, 56°C) Accuracy [%] ([2]; validation standard 2xLLOV): 47.8%
Short-time stability (24h, 4°C, without daylight) Accuracy [%] ([2]; validation standard 2xLLOV): 101.2%
Short-time stability (24h, RT, with daylight) Accuracy [%] ([2]; validation standard 2xLLOV): 107.8%
Short-time stability (24h, RT, without daylight) Accuracy [%] ([2]; validation standard 2xLLOV): 108.6%
Short-time stability (1h, 56°C) Accuracy [%] ([2]; validation standard LLOV): 28.5%
Short-time stability (24h, 4°C, without daylight) Accuracy [%] ([2]; validation standard LLOV): 96.7%
Short-time stability (24h, RT, with daylight) Accuracy [%] ([2]; validation standard LLOV): 94.9%
Short-time stability (24h, RT, without daylight) Accuracy [%] ([2]; validation standard LLOV): 96.7%
Short-time stability (1h, 56°C) Accuracy [%] ([2]; validation standard MOV): 52.5%
Short-time stability (24h, 4°C, without daylight) Accuracy [%] ([2]; validation standard MOV): 100.3%
Short-time stability (24h, RT, with daylight) Accuracy [%] ([2]; validation standard MOV): 110.2%
Short-time stability (24h, RT, without daylight) Accuracy [%] ([2]; validation standard MOV): 114.5%
Short-time stability (1h, 56°C) Accuracy [%] ([2]; validation standard ULOV): 44.6%
Short-time stability (24h, 4°C, without daylight) Accuracy [%] ([2]; validation standard ULOV): 97.1%
Short-time stability (24h, RT, with daylight) Accuracy [%] ([2]; validation standard ULOV): 108.0%
Short-time stability (24h, RT, without daylight) Accuracy [%] ([2]; validation standard ULOV): 110.3%
Long-term stability, 1 month, -20°C Accuracy [%] ([3]; validation standard 2xLLOV): 95.1%
Long-term stability, 1 month, -80°C Accuracy [%] ([3]; validation standard 2xLLOV): 89.2%
Long-term stability, 2 month, -20°C Accuracy [%] ([3]; validation standard 2xLLOV): 96.9%
Long-term stability, 2 month, -80°C Accuracy [%] ([3]; validation standard 2xLLOV): 99.7%
Long-term stability, 3 month, -20°C Accuracy [%] ([3]; validation standard 2xLLOV): 91.6%
Long-term stability, 3 month, -80°C Accuracy [%] ([3]; validation standard 2xLLOV): 92.2%
Long-term stability, 6 weeks, 4°C, without daylight Accuracy [%] ([3]; validation standard 2xLLOV): 103.4%
Long-term stability, 1 month, -20°C Accuracy [%] ([3]; validation standard LLOV): 91.9%
Long-term stability, 1 month, -80°C Accuracy [%] ([3]; validation standard LLOV): 89.8%
Long-term stability, 2 month, -20°C Accuracy [%] ([3]; validation standard LLOV): 93.3%
Long-term stability, 2 month, -80°C Accuracy [%] ([3]; validation standard LLOV): 97.4%
Long-term stability, 3 month, -20°C Accuracy [%] ([3]; validation standard LLOV): 90.5%
Long-term stability, 3 month, -80°C Accuracy [%] ([3]; validation standard LLOV): 93.1%
Long-term stability, 6 weeks, 4°C, without daylight Accuracy [%] ([3]; validation standard LLOV): 102.0%
Long-term stability, 1 month, -20°C Accuracy [%] ([3]; validation standard MOV): 95.6%
Long-term stability, 1 month, -80°C Accuracy [%] ([3]; validation standard MOV): 91.9%
Long-term stability, 2 month, -20°C Accuracy [%] ([3]; validation standard MOV): 99.1%
Long-term stability, 2 month, -80°C Accuracy [%] ([3]; validation standard MOV): 98.0%
Long-term stability, 3 month, -20°C Accuracy [%] ([3]; validation standard MOV): 96.9%
Long-term stability, 3 month, -80°C Accuracy [%] ([3]; validation standard MOV): 93.1%
Long-term stability, 6 weeks, 4°C, without daylight Accuracy [%] ([3]; validation standard MOV): 101.7%
Long-term stability, 1 month, -20°C Accuracy [%] ([3]; validation standard ULOV): 94.2%
Long-term stability, 1 month, -80°C Accuracy [%] ([3]; validation standard ULOV): 90.9%
Long-term stability, 2 month, -20°C Accuracy [%] ([3]; validation standard ULOV): 97.5%
Long-term stability, 2 month, -80°C Accuracy [%] ([3]; validation standard ULOV): 97.0%
Long-term stability, 3 month, -20°C Accuracy [%] ([3]; validation standard ULOV): 93.1%
Long-term stability, 3 month, -80°C Accuracy [%] ([3]; validation standard ULOV): 91.6%
Long-term stability, 6 weeks, 4°C, without daylight Accuracy [%] ([3]; validation standard ULOV): 98.0%
Autosampler (24h, 4°C) Accuracy [%] ([4]; validation standard 2xLLOV): 97.8%
Autosampler (72h, 4°C) Accuracy [%] ([4]; validation standard 2xLLOV): 101.2%
Autosampler (24h, 4°C) Accuracy [%] ([4]; validation standard LLOV): 88.1%
Autosampler (72h, 4°C) Accuracy [%] ([4]; validation standard LLOV): 92.6%
Autosampler (24h, 4°C) Accuracy [%] ([4]; validation standard MOV): 102.7%
Autosampler (72h, 4°C) Accuracy [%] ([4]; validation standard MOV): 104.0%
Autosampler (24h, 4°C) Accuracy [%] ([4]; validation standard ULOV): 100.3%
Autosampler (72h, 4°C) Accuracy [%] ([4]; validation standard ULOV): 102.0%
cmin [5]: 1165 ng/mL
